The pKd is −log10 of the Kd, conventionally taken in molar units. By pKi is commonly meant the negative decadic logarithm of the Ki, by convention in mol/L.

pKd, pKi: −log10 of the molar value.

For the first assay, the target named is T1, GST-tagged-Wee1 kinase (Homo sapiens, UniProt P30291).
T1 construct: purchased Carnabio (Carna Biosciences) 05-177
T1 sequence (P30291 whole entry): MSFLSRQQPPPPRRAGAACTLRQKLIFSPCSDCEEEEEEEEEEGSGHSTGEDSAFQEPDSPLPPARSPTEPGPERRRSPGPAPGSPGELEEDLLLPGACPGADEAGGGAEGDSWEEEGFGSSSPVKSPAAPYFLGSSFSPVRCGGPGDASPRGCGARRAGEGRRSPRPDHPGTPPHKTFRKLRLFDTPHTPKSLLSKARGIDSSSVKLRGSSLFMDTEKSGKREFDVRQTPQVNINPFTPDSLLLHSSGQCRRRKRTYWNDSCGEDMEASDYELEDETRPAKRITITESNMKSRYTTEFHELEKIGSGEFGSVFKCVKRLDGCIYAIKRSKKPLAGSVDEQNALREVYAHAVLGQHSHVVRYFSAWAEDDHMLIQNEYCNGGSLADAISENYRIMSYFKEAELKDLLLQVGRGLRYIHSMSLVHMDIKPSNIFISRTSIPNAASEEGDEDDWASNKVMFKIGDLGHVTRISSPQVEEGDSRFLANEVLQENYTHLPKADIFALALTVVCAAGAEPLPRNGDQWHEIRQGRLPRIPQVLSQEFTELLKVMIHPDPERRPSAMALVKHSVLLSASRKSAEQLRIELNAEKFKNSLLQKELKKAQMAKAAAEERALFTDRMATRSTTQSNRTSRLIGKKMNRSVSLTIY
Kind of assay: Wee1 time-resolved fluorescence equilibrium binding assay (displacement of Oregon Green-labeled ATP-competitive kinase probe).
Conditions: not given
The method, boiled down: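 Time-resolved fluorescence equilibrium binding with GST-Wee1, measuring displacement of a rapidly reversible Oregon Green-labelled ATP-competitive probe by competitive inhibitors; values reported as Ki.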
On to `O=C(NCCOCCOCCN1CCN(c2ccc(-c3cc4c(-c5cnc(C6(O)CCC6)s5)c(Cl)cnc4[nH]3)cc2)CC1)c1ccc2c(c1)C(=O)OC21c2cc(F)c(O)cc2Oc2cc(O)c(F)cc21` [fluorescent probe, N-(2-(2-(2-(4-(4-(5-chloro-4-(2-(1-hydroxycyclobutyl)thiazol-5-yl)-1H-pyrrolo[2,3-b]pyridin-2-yl)phenyl)piperazin-1-yl)ethoxy)ethoxy)ethyl)-2′,7′-difluoro-3′,6′-dihydroxy-3-oxo-3H-spiro[isobenzofuran-1,9′-xanthene]-5-carboxamide, reference compound], for which the pKd is 6.86.

Staying with this assay, now noted: read-out: Wee-1 inhibition (Ki).
`CS(=O)(=O)N1CC2(CCN(c3ccc(Nc4ncc5c(=O)n(-c6c(Cl)cccc6Cl)c6nccn6c5n4)cc3)CC2)C1` [Example 299, 6-(2,6-dichlorophenyl)-2-({4-[2-(methylsulfonyl)-2,7-diazaspiro[3.5]non-7-yl]phenyl}amino)imidazo[1,2-a]pyrimido[5,4-e]pyrimidin-5(6H)-one]: the pKi was more than 8.00.

Turning to `O=c1c2cnc(Nc3ccc4c(c3)CN(S(=O)(=O)C3CC3)CC43CC3)nc2n2ccnc2n1-c1c(Cl)cccc1Cl` [Example 285, 2-{[2′-(cyclopropylsulfonyl)-2′,3′-dihydro-1′H-spiro[cyclopropane-1,4′-isoquinolin]-7′-yl]amino}-6-(2,6-dichlorophenyl)imidazo[1,2-a]pyrimido[5,4-e]pyrimidin-5(6H)-one], the pKi was more than 8.00.

For `CC(C)N1CCN(c2ccc(Nc3ncc4c(=O)n(-c5ccccc5Cl)c5nccn5c4n3)cc2F)CC1` [Example 33, 6-(2-chlorophenyl)-2-({3-fluoro-4-[4-(propan-2-yl)piperazin-1-yl]phenyl}amino)imidazo[1,2-a]pyrimido[5,4-e]pyrimidin-5(6H)-one], the pKi is more than 8.00.

Turning to `CN1CCN(CCOc2ccc(Nc3ncc4c(=O)n(-c5ccccc5Cl)c5nccn5c4n3)cc2F)CC1` [Example 51, 6-(2-chlorophenyl)-2-({3-fluoro-4-[2-(4-methylpiperazin-1-yl)ethoxy]phenyl}amino)imidazo[1,2-a]pyrimido[5,4-e]pyrimidin-5(6H)-one], the pKi was more than 8.00.

Turning to `CN(C)C1CCC(NC(=O)c2ccc(Nc3ncc4c(=O)n(-c5c(Cl)cccc5Cl)c5nccn5c4n3)cc2)CC1` (stereo not shown) [Example 238, 4-{[6-(2,6-dichlorophenyl)-5-oxo-5,6-dihydroimidazo[1,2-a]pyrimido[5,4-e]pyrimidin-2-yl]amino}-N-[4-(dimethylamino)cyclohexyl]benzamide], the pKi was more than 8.00.

In the case of `CN1Cc2cc(Nc3ncc4c(=O)n(-c5c(F)cccc5Cl)c5nccn5c4n3)ccc2C(C)(C)C1` [Example 97, 6-(2-chloro-6-fluorophenyl)-2-[(2,4,4-trimethyl-1,2,3,4-tetrahydroisoquinolin-7-yl)amino]imidazo[1,2-a]pyrimido[5,4-e]pyrimidin-5(6H)-one], the pKi was more than 8.00.

Turning to `CCCNC1Cc2ccc(Nc3ncc4c(=O)n(-c5c(Cl)cccc5Cl)c5nccn5c4n3)cc2C1` (stereo not shown) [Example 297, 6-(2,6-dichlorophenyl)-2-{[2-(propylamino)-2,3-dihydro-1H-inden-5-yl]amino}imidazo[1,2-a]pyrimido[5,4-e]pyrimidin-5(6H)-one], the pKi was more than 8.00.

Take `O=c1c2cnc(Nc3ccc(-c4cscn4)cc3)nc2n2ccnc2n1-c1ccccc1Cl` [Example 349, 6-(2-chlorophenyl)-2-{[4-(1,3-thiazol-4-yl)phenyl]amino}imidazo[1,2-a]pyrimido[5,4-e]pyrimidin-5(6H)-one]: the pKi is 7.00 to 8.00.

Turning to `O=c1c2cnc(Nc3ccc4[nH]ncc4c3)nc2n2ccnc2n1-c1c(Cl)cccc1Cl` [Example 194, 6-(2,6-dichlorophenyl)-2-(1H-indazol-5-ylamino)imidazo[1,2-a]pyrimido[5,4-e]pyrimidin-5(6H)-one], the pKi is more than 8.00.

As for `COCCN1CCc2ccc(Nc3ncc4c(=O)n(-c5ccccc5Cl)c5nccn5c4n3)cc2C1` [Example 52, 6-(2-chlorophenyl)-2-{[2-(2-methoxyethyl)-1,2,3,4-tetrahydroisoquinolin-7-yl]amino}imidazo[1,2-a]pyrimido[5,4-e]pyrimidin-5(6H)-one], the pKi was more than 8.00.

As to `CN1CCN(c2ccc(Nc3ncc4c(=O)n(-c5ccc(C(F)(F)F)cc5Cl)c5nccn5c4n3)cc2)CC1` [Example 340, 6-[2-chloro-4-(trifluoromethyl)phenyl]-2-{[4-(4-methylpiperazin-1-yl)phenyl]amino}imidazo[1,2-a]pyrimido[5,4-e]pyrimidin-5(6H)-one], the negative logarithm of the Ki (pKi) is less than 7.00.

Consider `O=c1c2cnc(Nc3ccncc3)nc2n2ccnc2n1-c1ccccc1Cl` [Example 3, 6-(2-chlorophenyl)-2-(pyridin-4-ylamino)imidazo[1,2-a]pyrimido[5,4-e]pyrimidin-5(6H)-one], for which the pKi is less than 7.00.

For the compound `CC(C)(C)C(=O)N1Cc2cc(Nc3ncc4c(=O)n(-c5c(Cl)cccc5Cl)c5nccn5c4n3)ccc2C2(CC2)C1` [Example 276, 6-(2,6-dichlorophenyl)-2-{[2′-(2,2-dimethylpropanoyl)-2′,3′-dihydro-1′H-spiro[cyclopropane-1,4′-isoquinolin]-7′-yl]amino}imidazo[1,2-a]pyrimido[5,4-e]pyrimidin-5(6H)-one], the pKi is more than 8.00.

Turning to `CN(C)[C@@H]1CCN(c2ccc(Nc3ncc4c(=O)n(-c5c(Cl)cccc5Cl)c5nccn5c4n3)cc2)C1` [Example 283, 6-(2,6-dichlorophenyl)-2-({4-[(3R)-3-(dimethylamino)pyrrolidin-1-yl]phenyl}amino)imidazo[1,2-a]pyrimido[5,4-e]pyrimidin-5(6H)-one], the pKi was more than 8.00.

As to `CN1CCN(c2c(Cl)cc(Nc3ncc4c(=O)n(-c5ccccc5Cl)c5nccn5c4n3)cc2C(F)(F)F)CC1` [Example 353, 2-{[3-chloro-4-(4-methylpiperazin-1-yl)-5-(trifluoromethyl)phenyl]amino}-6-(2-chlorophenyl)imidazo[1,2-a]pyrimido[5,4-e]pyrimidin-5(6H)-one], the pKi was less than 7.00.

Regarding `O=c1c2cnc(Nc3ccc(N4C[C@@H]5C[C@H]4CN5)cc3)nc2n2ccnc2n1-c1c(Cl)cccc1Cl` [Example 151, 2-({4-[(1S,45)-2,5-diazabicyclo[2.2.1]hept-2-yl]phenyl}amino)-6-(2,6-dichlorophenyl)imidazo[1,2-a]pyrimido[5,4-e]pyrimidin-5(6H)-one], the pKi was more than 8.00.

As to `O=c1c2cnc(Nc3ccc4c(c3)CCN(CC(F)F)CC4)nc2n2ccnc2n1-c1ccccc1Cl` [Example 185, 6-(2-chlorophenyl)-2-{[3-(2,2-difluoroethyl)-2,3,4,5-tetrahydro-1H-3-benzazepin-7-yl]amino}imidazo[1,2-a]pyrimido[5,4-e]pyrimidin-5(6H)-one], the pKi was more than 8.00.

As for `O=c1c2cnc(Nc3ccc4c(c3)CNCC4)nc2n2ccnc2n1-c1ccccc1Cl` [Example 21, 6-(2-chlorophenyl)-2-(1,2,3,4-tetrahydroisoquinolin-7-ylamino)imidazo[1,2-a]pyrimido[5,4-e]pyrimidin-5(6H)-one], the pKi is more than 8.00.

Turning to `CCNC(=O)c1ccc(Nc2ncc3c(=O)n(-c4ccccc4Cl)c4nccn4c3n2)cc1` [Example 47, 4-{[6-(2-chlorophenyl)-5-oxo-5,6-dihydroimidazo[1,2-a]pyrimido[5,4-e]pyrimidin-2-yl]amino}-N-ethylbenzamide], the pKi was 7.00 to 8.00.

With `O=c1c2cnc(Nc3ccc(NC4CCNCC4)cc3)nc2n2ccnc2n1-c1c(Cl)cccc1Cl` [Example 308, 6-(2,6-dichlorophenyl)-2-{[4-(piperidin-4-ylamino)phenyl]amino}imidazo[1,2-a]pyrimido[5,4-e]pyrimidin-5(6H)-one], the pKi is more than 8.00.

With `CNc1nc(C)c(-c2ccc(Nc3ncc4c(=O)n(-c5c(Cl)cccc5Cl)c5nccn5c4n3)cc2)s1` [Example 197, 6-(2,6-dichlorophenyl)-2-({4-[4-methyl-2-(methylamino)-1,3-thiazol-5-yl]phenyl}amino)imidazo[1,2-a]pyrimido[5,4-e]pyrimidin-5(6H)-one], the pKi was more than 8.00.

`O=c1c2cnc(Nc3ccc(CN4CCOCC4)cc3)nc2n2ccnc2n1-c1ccccc1Cl` [Example 78, 6-(2-chlorophenyl)-2-{[4-(morpholin-4-ylmethyl)phenyl]amino}imidazo[1,2-a]pyrimido[5,4-e]pyrimidin-5(6H)-one]: the pKi is more than 8.00.

Turning to `Cc1cc(Nc2ncc3c(=O)n(-c4ccccc4Cl)c4nccn4c3n2)ccc1N1CCCN(C)CC1` [Example 37, 6-(2-chlorophenyl)-2-{[3-methyl-4-(4-methyl-1,4-diazepan-1-yl)phenyl]amino}imidazo[1,2-a]pyrimido[5,4-e]pyrimidin-5(6H)-one], the pKi is more than 8.00.

On to `CC(C)n1c(=O)c2cnc(Nc3ccc(N4CCN(C)CC4)cc3)nc2n2ccnc12` [Example 346, 2-{[4-(4-methylpiperazin-1-yl)phenyl]amino}-6-(propan-2-yl)imidazo[1,2-a]pyrimido[5,4-e]pyrimidin-5(6H)-one], for which the pKi was 7.00 to 8.00.

On to `CC(C)N1CCN(c2ccc(Nc3ncc4c(=O)n(-c5c(Cl)cccc5Cl)c5nccn5c4n3)cc2F)CC1` [Example 155, 6-(2,6-dichlorophenyl)-2-({3-fluoro-4-[4-(propan-2-yl)piperazin-1-yl]phenyl}amino)imidazo[1,2-a]pyrimido[5,4-e]pyrimidin-5(6H)-one], for which the pKi was more than 8.00.

Regarding `CN1CCN(c2ccc(Nc3ncc4c(=O)n(-c5ccccc5OC(F)(F)F)c5nccn5c4n3)cc2)CC1` [Example 341, 2-{[4-(4-methylpiperazin-1-yl)phenyl]amino}-6-[2-(trifluoromethoxy)phenyl]imidazo[1,2-a]pyrimido[5,4-e]pyrimidin-5(6H)-one], the pKi was less than 7.00.

For the compound `COc1ccc(-n2c(=O)c3cnc(Nc4ccc(N5CCN(C)CC5)cc4)nc3n3ccnc23)c(OC)c1` [Example 338, 6-(2,4-dimethoxyphenyl)-2-{[4-(4-methylpiperazin-1-yl)phenyl]amino}imidazo[1,2-a]pyrimido[5,4-e]pyrimidin-5(6H)-one], the pKi was less than 7.00.

The values above are taken from patent publication US8710065B2, “Tricyclic inhibitors of kinases” (AbbVie Inc., priority 2011, dated 2014).
